pIC50: −log10 of the molar value.
Tests used:
[1] = target: [35S]-TBPS binding, rat brain cortical membranes; experiment: Steroid inhibition of TBPS binding ([35S]-TBPS radioligand displacement); settings: 3 nM [35S]-TBPS, 5 μM GABA
Protocol: TBPS binding assays using rat brain cortical membranes in the presence of 5 μM GABA has been described (Gee et al, J. Pharmacol. Exp. Then 1987, 241, 346-353; Hawkinson et al, Mol. Pharmacol. 1994, 46, 977-985; Lewin, A. H et al., Mol. Pharmacol. 1989, 35, 189-194).
Briefly, cortices are rapidly removed following decapitation of carbon dioxide-anesthetized Sprague-Dawley rats (200-250 g). The cortices are homogenized in 10 volumes of […] using a glass/teflon homogenizer and centrifuged at 1500×g for 10 min at 4° C. The resultant supernatants are centrifuged at 10,000×g for 20 min at 4° C. to obtain the P2 pellets. The P2 pellets are resuspended in 200 mM NaCl/50 mM Na—K phosphate pH 7.4 buffer and centrifuged at 10,000×g for 10 min at 4° C. This washing procedure is repeated twice and the pellets are resuspended in 10 volumes of buffer. Aliquots (100 μL) of the membrane suspensions are incubated with 3 nM [^35S]-TBPS and 5 μL aliquots of test drug dissolved in dimethyl sulfoxide (DMSO) (final 0.5%) in the presence of 5 μM GABA. The incubation is brought to a final volume of 1.0 mL with buffer. […] Following a 90 min incubation at room temp, the assays are terminated by filtration through glass fiber filters (Schleicher and Schuell No. 32) using a cell harvester (Braudel) and rinsed three times with ice-cold buffer. Filter bound radioactivity is measured by liquid scintillation spectrometry. Non-linear curve fitting of the overall data for each drug averaged for each concentration is done using Prism (GraphPad).
Various compounds are or can be screened to determine their potential as modulators of [^35S]-TBPS binding in vitro. These assays are or can be performed in accordance with the above discussed procedures.

[2] = target: α1β2γ2 GABAA receptors (Homo sapiens (Human), UniProt P14867+P47870); experiment: Patch clamp electrophysiology (QPatch) of recombinant α1β2γ2 GABAA receptors in LTK cells; assay type: cell-based; settings: 10 μM test article, GABA EC20 = 2 μM; for Emax at 10 µM: read-out: GABA (α1β2γ2) Qpatch in Ltk, % efficacy at 10 μM
Protocol: Cellular electrophysiology is used to measure the pharmacological properties of our GABAA receptor modulators in heterologous cell systems. Each compound is tested for its ability to affect GABA mediated currents at a suhmaximal agonist dose (GABA EC20=2 μM). LTK cells are stably transfected with the α1β2γ2 subunits of the GABA receptor and CHO cells are transiently transfected with the α4β3δ subunits via the Lipofecatamine method. Cells were passaged at a confluence of about 50-80% and then seeded onto 35 mm sterile culture dishes containing 2 ml culture complete medium without antibiotics or antimycotics. Confluent clusters of cells are electrically coupled (Pritchett et al., Science, 1988, 242, 1306-1308). Because responses in distant cells are not adequately voltage clamped and because of uncertainties about the extent of coupling (Verdoom et al., Neuron 1990, 4, 919-928), cells were cultivated at a density that enables the recording of single cells (without visible connections to other cells).
Whole cell currents were measured with HEKA EPC-10 amplifiers using PatchMaster software or by using the high throughput QPatch platform (Sophion). Bath solution for all experiments contained (in mM): NaCl 137 mM, KCl 4 mM, CaCl2 1.8 mM, MgCl2 1 mM, HEPES 10 mM, D-Glucose 10 mM, pH (NaOH) 7.4. In some cases 0.005% cremophor was also added. Intracellular (pipette) solution contained: KCl 130 mM, MgCl2 1 mM, Mg-ATP 5 mM, HEPES 10 mM, EGTA 5 mM, pH 7.2. During experiments, cells and solutions were maintained at room temperature (19° C.-30° C.). For manual patch clamp recordings, cell culture dishes were placed on the dish holder of the microscope and continuously perfused (1 ml/min) with bath solution. After formation of a Gigaohm seal between the patch electrodes and the cell (-ipette resistance range: 2.5 MΩ-6.0 MΩ; seal resistance range:>1 GΩ) the cell membrane across the pipette tip was ruptured to assure electrical access to the cell interior (whole-cell patch-configuration). For experiments using the QPatch system, cells were transferred as suspension to the QPatch system in the bath solution and automated whole cell recordings were performed.
Cells were voltage clamped at a holding potential of −80 mV. For the analysis of test articles, GABA receptors were stimulated by 2 μM GABA after sequential pre-incubation of increasing concentrations of the test article. Pre-incubation duration was 30 s and the duration of the GABA stimulus was 2s. Test articles were dissolved in DMSO to form stock solutions (10 mM). Test articles were diluted to 0.01, 0.1, 1, and 10 μM in bath solution. All concentrations of test articles were tested on each cell. The relative percentage potentiation was defined as the peak amplitude in response to GABA EC20 in the presence of the test article divided by the peak amplitude in response to GABA EC20 alone, multiplied by 100. For Table 2. GABAA receptors α1β2γ2 and α4β3δ% efficacy: “A” 10-100, “B”>100-500, “C”>500; D indicates the data is not available or has not been determined.

## C[C@H](C(=O)[C@H]1CC[C@H]2[C@@H]3CC[C@H]4C[C@](C)(O)CC[C@]4(C)[C@H]3CC[C@]12C)n1ccnn1 [Compound 92, (R)-1-((3R,5S,8R,9S,10S,13S,14S,17S)-3-hydroxy-3,10,13-trimethylhexadecahydro-1H-cyclopenta[a]phenanthren-17-yl)-2-(1H-1,2,3-triazol-1-yl)propan-1-one]
[1]
  pIC50: < 6.30

## C[C@@H](C(=O)[C@H]1CC[C@H]2[C@@H]3CC[C@H]4C[C@](C)(O)CC[C@]4(C)[C@H]3CC[C@]12C)n1ccnn1 [Compound 93, (S)-1-((3R,5S,8R,9S,10S,13S,14S,17S)-3-hydroxy-3,10,13-trimethylhexadecahydro-1H-cyclopenta[a]phenanthren-17-yl)-2-(1H-1,2,3-triazol-1-yl)propan-1-one]
[1]
  pIC50: 6.30 to 7.00

## C[C@H](C(=O)[C@H]1CC[C@H]2[C@@H]3CC[C@H]4C[C@](C)(O)CC[C@]4(C)[C@H]3CC[C@]12C)n1nc2ccccc2n1 [Compound 98, (R)-2-(2H-benzo[d][1,2,3]triazol-2-yl)-1-((3R,5S,8R,9S,10S,13S,14S,17S)-3-hydroxy-3,10,13-trimethylhexadecahydro-1H-cyclopenta[a]phenanthren-17-yl)propan-1-one]
[1]
  pIC50: 7.00 to 7.30

## C[C@@H](C(=O)[C@H]1CC[C@H]2[C@@H]3CC[C@H]4C[C@](C)(O)CC[C@]4(C)[C@H]3CC[C@]12C)n1nc2ccccc2n1 [Compound 99, (S)-2-(2H-benzo[d][1,2,3]triazol-2-yl)-1-((3R,5S,8R,9S,10S,13S,14S,17S)-3-hydroxy-3,10,13-trimethylhexadecahydro-1H-cyclopenta[a]phenanthren-17-yl)propan-1-one]
[1]
  pIC50: 7.30 to 8.00

## C[C@H](C(=O)[C@H]1CC[C@H]2[C@@H]3CC[C@H]4C[C@](C)(O)CC[C@]4(C)[C@H]3CC[C@]12C)n1nnc2ccccc21 [Compound 100, (R)-2-(1H-benzo[d][1,2,3]triazol-1-yl)-1-((3R,5S,8R,9S,10S,13S,14S,17S)-3-hydroxy-3,10,13-trimethylhexadecahydro-1H-cyclopenta[a]phenanthren-17-yl)propan-1-one]
[1]
  pIC50: < 6.30

## C[C@@H](C(=O)[C@H]1CC[C@H]2[C@@H]3CC[C@H]4C[C@](C)(O)CC[C@]4(C)[C@H]3CC[C@]12C)n1nnc2ccccc21 [Compound 101, (S)-2-(1H-benzo[d][1,2,3]triazol-1-yl)-1-((3R,5S,8R,9S,10S,13S,14S,17S)-3-hydroxy-3,10,13-trimethylhexadecahydro-1H-cyclopenta[a]phenanthren-17-yl)propan-1-one]
[1]
  pIC50: 7.00 to 7.30

## CC(C)(C(=O)[C@H]1CC[C@H]2[C@@H]3CC[C@H]4C[C@](C)(O)CC[C@]4(C)[C@H]3CC[C@]12C)n1nnc2ccccc21 [Compound 102, 2-(1H-benzo[d][1,2,3]triazol-1-yl)-1-((3R,5S,8R,9S,10S,13S,14S,17S)-3-hydroxy-3,10,13-trimethylhexadecahydro-1H-cyclopenta[a]phenanthren-17-yl)-2-methylpropan-1-one]
[1]
  pIC50: < 6.30

## C[C@@]1(O)CC[C@@]2(C)[C@@H](CC[C@@H]3[C@@H]2CC[C@]2(C)[C@@H](C(=O)Cn4nc5ccc(F)c(F)c5n4)CC[C@@H]32)C1 [Compound 108, 2-(4,5-difluoro-2H-benzo[d][1,2,3]triazol-2-yl)-1-((3R,5S,8R,9S,10S,13S,14S,17S)-3-hydroxy-3,10,13-trimethylhexadecahydro-1H-cyclopenta[a]phenanthren-17-yl)ethanone]
[1]
  pIC50: 7.30 to 8.00
[2]
  Emax at 10 µM: 100 to 500%

## C[C@@]1(O)CC[C@@]2(C)[C@@H](CC[C@@H]3[C@@H]2CC[C@]2(C)[C@@H](C(=O)Cn4nnc5ccc(Cl)c(F)c54)CC[C@@H]32)C1 [Compound 113]
[1]
  pIC50: 7.30 to 8.00
[2]
  GABA (α1β2γ2) Qpatch in Ltk, % efficacy at 10 μM: B (>100-500)

## C[C@@]1(O)CC[C@@]2(C)[C@@H](CC[C@@H]3[C@@H]2CC[C@]2(C)[C@@H](C(=O)Cn4cnc(C#N)c4)CC[C@@H]32)C1 [Compound 138]
[1]
  pIC50: 6.30 to 7.00
[2]
  GABA (α1β2γ2) Qpatch in Ltk, % efficacy at 10 μM: C (>500)

## C[C@@]1(O)CC[C@@]2(C)[C@@H](CC[C@@H]3[C@@H]2CC[C@]2(C)[C@@H](C(=O)Cn4cc(N)cn4)CC[C@@H]32)C1 [Compound 152, 2-(4-amino-1H-pyrazol-1-yl)-1-((3R,5S,8R,9S,10S,13S,14S,17S)-3-hydroxy-3,10,13-trimethylhexadecahydro-1H-cyclopenta[a]phenanthren-17-yl)ethanone]
[1]
  pIC50: 6.30 to 7.00
[2]
  Emax at 10 µM: 100 to 500%

## CC(=O)Nc1cnn(CC(=O)[C@H]2CC[C@H]3[C@@H]4CC[C@H]5C[C@](C)(O)CC[C@]5(C)[C@H]4CC[C@]23C)c1 [Compound 153, N-(1-(2-((3R,5S,8R,9S,10S,13S,14S,17S)-3-hydroxy-3,10,13-trimethylhexadecahydro-1H-cyclopenta[a]phenanthren-17-yl)-2-oxoethyl)-1H-pyrazol-4-yl)acetamide]
[1]
  pIC50: 6.30 to 7.00
[2]
  Emax at 10 µM: 100 to 500%

## C[C@@]1(O)CC[C@@]2(C)[C@@H](CC[C@@H]3[C@@H]2CC[C@]2(C)[C@@H](C(=O)Cn4cc5ccc(F)cc5n4)CC[C@@H]32)C1 [Compound 237]
[1]
  pIC50: 7.30 to 8.00

## C[C@@]1(O)CC[C@@]2(C)[C@@H](CC[C@@H]3[C@@H]2CC[C@]2(C)[C@@H](C(=O)Cn4ncc5ccc(F)cc54)CC[C@@H]32)C1 [Compound 238]
[1]
  pIC50: 7.00 to 7.30

## C[C@@]1(O)CC[C@@]2(C)[C@@H](CC[C@@H]3[C@@H]2CC[C@]2(C)[C@@H](C(=O)Cn4cc5cc(F)ccc5n4)CC[C@@H]32)C1 [Compound 239]
[1]
  pIC50: 7.30 to 8.00

## C[C@@]1(O)CC[C@@]2(C)[C@@H](CC[C@@H]3[C@@H]2CC[C@]2(C)[C@@H](C(=O)Cn4ncc5cc(F)ccc54)CC[C@@H]32)C1 [Compound 240]
[1]
  pIC50: 7.30 to 8.00

## C[C@@]1(O)CC[C@@]2(C)[C@@H](CC[C@@H]3[C@@H]2CC[C@]2(C)[C@@H](C(=O)Cn4nc5ccc(F)cc5n4)CC[C@@H]32)C1 [Compound 245]
[1]
  pIC50: 7.30 to 8.00

## C[C@@]1(O)CC[C@@]2(C)[C@@H](CC[C@@H]3[C@@H]2CC[C@]2(C)[C@@H](C(=O)Cn4nc5ccc(F)cc5n4)CC[C@@H]32)C1 [Compound 246]
[1]
  pIC50: > 8.00

## CSc1ccc2nnn(CC(=O)[C@H]3CC[C@H]4[C@@H]5CC[C@H]6C[C@](C)(O)CC[C@]6(C)[C@H]5CC[C@]34C)c2c1 [Compound 248]
[1]
  pIC50: > 8.00

## C[C@@]1(O)CC[C@@]2(C)[C@@H](CC[C@@H]3[C@@H]2CC[C@]2(C)[C@@H](C(=O)Cc4cccc(F)c4)CC[C@@H]32)C1 [Compound 257]
[1]
  pIC50: 6.30 to 7.00

Source: US11530237B2, “Compositions and methods for treating CNS disorders” (Sage Therapeutics, Inc., priority 2014, dated 2022)
